Data: ChEMBL document CHEMBL5291721, “A preclinical secondary pharmacology resource illuminates target-adverse drug reaction associations of marketed drugs” (Nat Commun, 2023)

How the values were obtained:
[1] = biological target: T1, Muscarinic acetylcholine receptor M1 (Homo sapiens, UniProt P11229)
T1 sequence (P11229 whole entry): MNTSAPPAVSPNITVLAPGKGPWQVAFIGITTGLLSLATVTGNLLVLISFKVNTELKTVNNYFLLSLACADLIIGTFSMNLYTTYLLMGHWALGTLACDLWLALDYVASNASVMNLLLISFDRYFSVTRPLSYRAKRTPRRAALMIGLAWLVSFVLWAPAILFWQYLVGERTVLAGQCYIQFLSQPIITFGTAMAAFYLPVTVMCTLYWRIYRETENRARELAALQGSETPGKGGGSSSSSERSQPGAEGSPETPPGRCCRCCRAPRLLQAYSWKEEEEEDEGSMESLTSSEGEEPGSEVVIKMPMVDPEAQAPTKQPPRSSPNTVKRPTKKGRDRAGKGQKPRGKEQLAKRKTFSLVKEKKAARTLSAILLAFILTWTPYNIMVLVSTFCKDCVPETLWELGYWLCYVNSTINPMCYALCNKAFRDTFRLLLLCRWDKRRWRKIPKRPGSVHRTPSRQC

[2] = biological target: T2, Type-1 angiotensin II receptor (Homo sapiens, UniProt P30556)
T2 sequence (P30556 whole entry): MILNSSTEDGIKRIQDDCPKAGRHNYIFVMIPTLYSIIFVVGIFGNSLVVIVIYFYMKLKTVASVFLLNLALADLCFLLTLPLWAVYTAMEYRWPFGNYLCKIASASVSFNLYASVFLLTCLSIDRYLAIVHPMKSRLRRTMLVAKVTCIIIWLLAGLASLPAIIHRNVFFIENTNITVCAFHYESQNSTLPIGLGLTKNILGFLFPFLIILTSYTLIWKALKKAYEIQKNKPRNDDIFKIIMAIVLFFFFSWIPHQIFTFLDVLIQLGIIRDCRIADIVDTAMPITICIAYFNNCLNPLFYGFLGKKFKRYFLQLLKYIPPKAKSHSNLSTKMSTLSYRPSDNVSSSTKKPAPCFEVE
Further: assay procedure not described here.

| Compound | AC50 [1] [µM] | AC50 [2] [µM] |
| --- | --- | --- |
| CCc1oc2ccccc2c1C(=O)c1cc(I)c(O)c(I)c1 [BENZIODARONE] | > 30 |  |
| O=C(OCC(O)CO)c1ccccc1Nc1ccnc2cc(Cl)ccc12 (configuration not stated) [GLAFENINE] |  | > 100 |
